Reference: patent publication US10172857B2, “Boosting the effect of methotrexate through the combined use with lipophilic statins” (Dalana3, S.L., priority 2013, dated 2019)

What was measured:
Format in all cases: cell-based, human
HOS cells [1] = assay: Analysis of the cell cycle by flow cytometry (PI); settings: for changes in the distribution of the cell cycle (summary): FIGS. 11-15; for changes in the cell cycle with increasing doses: MTX 10-200 nM or SV 0.2-10 μM
Description: In order to analyse the changes in the distribution of the cell cycle the cells are seeded and treated under the same conditions employed with the Annexin V dye. The treated and untreated cells are resuspended in NP-40 at 1% dissolved in PBS additionally containing 50 μg/mL PI at a density of 3×10^5 cells/sample. The analysis and quantification of each of the experimental conditions is then carried out after 15 minutes incubation in the dark and at ambient temperature, following the same methodology as employed in the apoptosis experiments with Annexin-V staining (FACSCalibur flow cytometry and Cell Quest software).

osteosarcoma cells (HOS) = assay: Cell viability test, trypan blue staining and counting in Neubauer chamber; settings: for morphological changes: 0.5 μM simvastatin, 50 nM methotrexate or both, 48 and 72 hours; for effect on cell proliferation and cell death (trypan blue counts): FIGS. 6-10
Description: The HOS cells are cultivated in a culture medium supplemented with 5-10% heat-inactivated foetal bovine serum and 2 mM of L-glutamine, at 37° C., 95% humidity and 5% atmospheric CO2. The cells are treated with 0.5 μM of simvastatin and with 50 nM of MTX for 24, 48 and 72 hours. The cells are collected by trypsinization. This involves first aspirating the cultivation medium; the cells are then washed with 2-3 mL of PBS (sterile); add 0.5-1 mL of trypsin-EDTA solution (sterile); incubated at 37° for 5 minutes; the cells are collected with 5 mL of fresh culture medium; and the suspension is placed in a sterile 15 mL tube. The trypan blue dye is used in order to determine cell viability. Trypan blue is a colloid that enters the cells through breaks in the cell membrane. Therefore, the cells that appear in the image, clearly stained blue, are considered to be non-viable. For the measurement, mix 50 μL of the trypan blue solution and 50 μL of cell suspension are placed in a 1.5 mL tube. The mixture is homogenised and 10 μL placed in a Neubauer chamber. The total cells and the non-viable cells (completely stained blue) are counted.

HOS cells [2] = assay: Apoptosis testing by flow cytometry (SubG0 peak); settings: 48 hours
[3] = HOS cells, SV 1 μM alone, 24 hours

Row | SMILES | changes in the distribution of the cell cycle (summary) (HOS cells [1]) | changes in the cell cycle with increasing doses (HOS cells [1]; HOS cells, 24 hours) | morphological changes (osteosarcoma cells (HOS)) | effect on cell proliferation and cell death (trypan blue counts) (osteosarcoma cells (HOS)) | MTX concentration at incipient appearance of the SubG0 peak (cell death by apoptosis) (HOS cells [2]; MTX 10-200 nM tested) [NM] | number of cells quantified in the SubG0 phase (HOS cells [2]; doses above 50 nM of MTX) | decrease of the G1 phase compared to the control (HOS cells [1]; [3]) [%] | increase of cells in the G2/M phase compared to the control (HOS cells [1]; [3]) [%] | SV concentration at appearance of the SubG0 peak (cell death by apoptosis) (HOS cells [2]; SV 0.2-10 μM tested) [µM] | SV concentration at maximum of the SubG0 peak (HOS cells [2]; SV 0.2-10 μM tested) [µM] | number of cells quantified in the SubG0 phase (HOS cells [2]; doses above 0.2 μM SV)
1 | CN(Cc1cnc2nc(N)nc(N)c2n1)c1ccc(C(=O)N[C@@H](CCC(=O)O)C(=O)O)cc1 [MTX, (2S)-2-[(4-{[(2,4-diaminopteridin-6-yl)methyl](methyl)amino}benzoyl)amino]pentanedioic acid] | halt in the cycle in phase G1 | decrease in the S phase and in the number of cells in phase G2/M, with subsequent accumulation in the phase G1 | enlarged cells and even those with two nuclei | preferentially acts to slow cell proliferation | 20 | significant increase |  |  |  |  | 
2 | CCC(C)(C)C(=O)O[C@H]1C[C@@H](C)C=C2C=C[C@H](C)[C@H](CC[C@@H]3C[C@@H](O)CC(=O)O3)[C@H]21 [SV, simvastatin] | halts the cycle in phase G2/M | decrease in the S phase and in the number of cells in phase G1 is notable, with subsequent accumulation in the phase G2/M | rounded cells | predominant effect on the induction of cell death |  |  | 19.60 | 40.92 | < 0.2 | 10 | notable increase
